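Cultured in 96-well plates, cells were exposed to test compound for 48 hours across five concentrations. TGI denotes the concentration required for complete inhibition of growth.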
Tests used:
Test in all cases: NCI-60 cell line screen, 48 h
[1] = tested on: HOP-92 NSCLC
[2] = tested on: HOP-62 NSCLC
[3] = tested on: MALME-3M melanoma
[4] = tested on: SK-MEL-5 melanoma
[5] = tested on: OVCAR-5 ovarian
[6] = tested on: SF-539 CNS
[7] = tested on: TK-10 renal
[8] = tested on: MDA-MB-231 breast
[9] = tested on: MDA-N
[10] = tested on: HT29 colon
[11] = tested on: CAKI-1 renal
[12] = tested on: ACHN renal
[13] = tested on: RXF 393 renal
[14] = tested on: EKVX NSCLC
[15] = tested on: K-562 leukemia
[16] = tested on: SK-MEL-28 melanoma
[17] = tested on: SF-268 CNS
[18] = tested on: SF-295 CNS
[19] = tested on: A498 renal
[20] = tested on: OVCAR-4 ovarian
[21] = tested on: BT-549 breast
[22] = tested on: NCI/ADR-RES ovarian
[23] = tested on: OVCAR-8 ovarian
[24] = tested on: HCT-15 colon
[25] = tested on: NCI-H460 lung
[26] = tested on: HCC-2998 colon
[27] = tested on: HCT-116 colon
[28] = tested on: SW-620 colon
[29] = tested on: MDA-MB-435
[30] = tested on: IGROV1 ovarian
[31] = tested on: 786-0 renal
[32] = tested on: SK-MEL-2 melanoma
[33] = tested on: OVCAR-3 ovarian
[34] = tested on: SK-OV-3 ovarian
[35] = tested on: NCI-H522 lung
[36] = tested on: MOLT-4 leukemia
[37] = tested on: NCI-H226 lung
[38] = tested on: T-47D breast
[39] = tested on: U251 CNS
[40] = tested on: COLO 205 colon
[41] = tested on: DU-145 prostate
[42] = tested on: M14 melanoma
[43] = tested on: SNB-75 CNS
[44] = tested on: NCI-H23 lung
[45] = tested on: A549 NSCLC
[46] = tested on: UO-31 renal
[47] = tested on: UACC-62 melanoma
[48] = tested on: MCF7 breast
[49] = tested on: PC-3 prostate
[50] = tested on: HS 578T breast
[51] = tested on: KM12 colon
[52] = tested on: RPMI-8226 leukemia
[53] = tested on: HL-60(TB) leukemia
[54] = tested on: SN12C renal
[55] = tested on: UACC-257 melanoma
[56] = tested on: SNB-19 CNS
[57] = tested on: LOX IMVI melanoma
[58] = tested on: SR leukemia
[59] = tested on: CCRF-CEM leukemia

Measured: TGI

Cc1cc(S(=O)(=O)Nc2n[nH]c(Nc3ccc(Cl)cc3)n2)c(S)cc1Cl
> 100 µM: all assays above
